Values quoted from earlier work, collected in US20210244720A1, “Therapeutic Tyrosine Kinase Inhibitors for Relapsing Multiple Sclerosis (RMS)” (Genzyme Corporation, priority 2020, published 2021).

Test system: RMS patients
Details: from Week 12; cited from earlier work

Structure (SMILES): C=CC(=O)N1CCC(CNc2ncnc(N)c2-c2ccc(Oc3ccccc3)cc2)CC1 [evobrutinib]
- reduction of new Gd-enhancing T1 lesions: meaningful reduction
